pKi: −log10 of the molar value.
Molecular target: T1, mutated (E4Q, A5T) hMCHR1 receptor (Homo sapiens, UniProt Q99705, A5T/E4Q)
T1 construct: expressed in transfected cells
Assay: Radioligand binding assay for assessment of MCHR1 activity
Details: membranes from stably transfected HEK-293 cells; competition with [Phe13,[125I]Tyr19]-MCH, 90 min
Procedure: Radioligand Binding Assay for Assessment of MCHR1 Activity
Membranes from stably transfected HEK-293 cells expressing a mutated (E4Q, A5T) hMCHR1 receptor were prepared by dounce homogenization and differential centrifugation. Binding experiments were carried out with 0.5-1.0 ug of membrane protein incubated in a total of 0.2 ml in 25 mM HEPES (pH 7.4) with 10 mM MgCl2, 2 mM EGTA, and 0.1% BSA (Binding Buffer) for 90 min. For competition binding assays, reactions were carried out in the presence of with 0.06-0.1 nM [Phe^13, [^125I]Tyr^19]-MCH and increasing concentrations of unlabeled test molecules. Reactions were terminated by rapid vacuum filtration over 96 well-GFC UNIFILTER® plates pre-coated with 0.075 ml binding buffer containing 1% BSA, and washed 3 times with 0.4 ml of Phospho-buffered Saline (pH 7.4) containing 0.01% TX-100. Filters were dried, 0.05 ml microscint 20 was added to each well and radioactivity was subsequently quantified by scintillation counting on a TOPCOUNT® microplate scintillation counter (Packard). Inhibitory constants were determined by nonlinear least squares analysis using a four parameter logistic equation.

T1 sequence (Q99705 whole entry E4Q/A5T): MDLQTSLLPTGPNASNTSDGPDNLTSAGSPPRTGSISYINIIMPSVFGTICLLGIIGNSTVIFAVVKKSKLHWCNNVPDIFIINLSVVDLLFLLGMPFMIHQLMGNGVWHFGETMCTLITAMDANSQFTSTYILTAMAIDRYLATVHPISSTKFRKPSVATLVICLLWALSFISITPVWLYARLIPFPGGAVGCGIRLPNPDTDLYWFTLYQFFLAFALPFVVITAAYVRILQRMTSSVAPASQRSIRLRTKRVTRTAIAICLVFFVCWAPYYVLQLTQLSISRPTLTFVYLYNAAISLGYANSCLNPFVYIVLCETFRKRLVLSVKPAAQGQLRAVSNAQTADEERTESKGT

| SMILES | pKi |
| --- | --- |
| COc1cc(-n2nnc3cc(-c4ccc(Cl)cc4)sc3c2=O)ccc1OC[C@H]1OC(C)(C)O[C@@H]1C [Example 6] | 7.72 |
| COc1cc(-n2nnc3cc(-c4ccc(Cl)cc4)sc3c2=O)ccc1OCCO [Example 4, 6-(4-Chlorophenyl)-3-(4-(2-hydroxyethoxy)-3-methoxyphenyl)thieno[3,2-d][1,2,3]triazin-4(3H)-one] | 8.30 |
| COc1cc(-n2nnc3cc(-c4ccc(Cl)cc4)sc3c2=O)ccc1OCC(O)C1CC1 (stereo not drawn) [Example 5, 6-(4-Chlorophenyl)-3-(4-(2-cyclopropyl-2-hydroxyethoxy)-3-methoxyphenyl)thieno[3,2-d][1,2,3]triazin-4(3H)-one] | 8.00 |
| COc1cc(-n2nnc3cc(-c4ccc(Cl)cc4)sc3c2=O)ccc1OCC(C)=O [Example 2, 6-(4-Chlorophenyl)-3-(3-methoxy-4-(2-oxopropoxy)phenyl)thieno[3,2-d][1,2,3]triazin-4(3H)-one] | 8.30 |
| COc1cc(-n2nnc3cc(-c4ccc(Cl)cc4)sc3c2=O)ccc1OCC(O)C(F)(F)F (stereo not drawn) [Example 8, 6-(4-Chlorophenyl)-3-(3-methoxy-4-(3,3,3-trifluoro-2-hydroxypropoxy)phenyl)thieno[3,2-d][1,2,3]triazin-4(3H)-one] | 8.10 |
| COc1cc(-n2nnc3cc(-c4ccc(Cl)cc4)sc3c2=O)ccc1OCC(C)(C)O [Example 1, 6-(4-Chlorophenyl)-3-(4-(2-hydroxy-2-methylpropoxy)-3-methoxyphenyl)-thieno[3,2-d][1,2,3]triazin-4(3H)-one] | 8.52 |
| COc1cc(-n2nnc3cc(-c4ccc(Cl)cc4)sc3c2=O)ccc1OCC(C)O (stereo not drawn) [Example 3, 6-(4-Chlorophenyl)-3-(4-(2-hydroxypropoxy)-3-methoxyphenyl)thieno[3,2-d][1,2,3]triazin-4(3H)-one] | 8.15 |
| COc1cc(-n2ncc3cc(-c4ccc(Cl)cc4)sc3c2=O)ccc1OCC(C)(C)O [Example 9, 2-(4-Chlorophenyl)-6-(4-(2-hydroxy-2-methylpropoxy)-3-methoxyphenyl)-thieno[2,3-d]pyridazin-7(6H)-one] | 8.40 |
| COc1cc(-n2nnc3cc(-c4ccc(Cl)cc4)sc3c2=O)ccc1OC[C@@H](O)[C@@H](C)O [Example 7, 6-(4-Chlorophenyl)-3-(4-((2R,3R)-2,3-dihydroxybutoxy)-3-methoxyphenyl)thieno[3,2-d][1,2,3]triazin-4(3H)-one] | 8.30 |

Reference: patent publication US7973159B2, “Non-basic melanin concentrating hormone receptor-1 antagonists” (Bristol-Myers Squibb Company, priority 2007, dated 2011)
